Results: patent US5354862A, “Preparation and the use of halopropargylated cyclic quaternary ammonium compounds as antimicrobial agents” (Rohm and Haas Company, priority 1993, dated 1994)
Where two headings read alike, the source gives them in different places. Values belong to the compound of their own block, whether it stands above or below them.

Columns and labels:
Test in all cases: Broth two-fold serial dilution MIC test
[1] = test system: Pseudomonas aeruginosa; assay type: cell-based, Pseudomonas aeruginosa (ATCC 15442); settings: Table 2, Psae
Excerpt: (§1) A minimum inhibitory concentration (MIC) value is obtained using a broth, two-fold serial dilution test performed as follows: A stock solution or dispersion of the test compound, typically at a concentration of 1%, is made in a 5:3:2 solvent solution of acetone. methanol, and water. A volume of the stock solution is dispensed into culture media to give an initial starting test concentration of 500 ppm compound.
(§2) When the test is ready to be done, each vessel in the dilution series, except the first vessel, contains an equal volume of compound free broth. The first vessel contains twice the volume of broth with the starting concentration of test compound. One half of the broth from the first vessel is transferred to the second vessel- After being mixed, one half the resulting volume is removed from the second vessel and transferred to the third vessel. The entire cycle is repeated sufficiently to give a series of concentrations amounting to 500, 250, 125, 63, 31, 16, 8, and 4, 2, 1, 0.5, 0.25 ppm respectively.
(§3) Each vessel is then inoculated with a cell suspension of the appropriate test organism. Bacteria are grown in broth, fungi on agar slants for a time and at a temperature appropriate to the species being tested, and algae are a mixture of green algae and blue-green bacteria grown in a nutrient media. At the end of the growth period, in the case of bacteria, the broth is vortexed to disperse the cells.
(§4) In the case of fungi, the spores are harvested by pipetting water onto the slant and dislodging the spores with a sterile loop. The cell/spore suspension is standardized by controlling incubation time, temperature, and the volume of the diluent. The suspension is then used to inoculate the vessels containing the broth compound.
(§5) The vessels are then incubated at the appropriate temperature. After the incubation, the vessels are examined for growth/no growth. The minimum inhibitory concentration (MIC) is defined as the lowest concentration of compound that results in complete inhibition of growth of the test organism.
1. Pseudomonas aeruginosa

[2] = test system: Escherichia coli; assay type: cell-based, Escherichia coli (ATCC 11229); settings: Table 2, Ecol
Excerpt: as §1, §2, §3, §4, §5

[3] = test system: Staphylococcus aureus; assay type: cell-based, Staphylococcus aureus (ATCC 6538); settings: Table 2, Saur
Excerpt: as §1, §2, §3, §4, §5
2. Staphylococcus aureus

[4] = test system: Aspergillus niger; assay type: cell-based, Aspergillus niger (ATCC 6275); settings: Table 2, Anig, TSB media
Excerpt: as §1, §2, §3, §4, §5
4. Aspergillus niger 6275 Anig

[5] = Pseudomonas aeruginosa, M9G media, read-out: MIC
[6] = Pseudomonas aeruginosa, TSB media, read-out: MIC
[7] = Escherichia coli, M9G media, read-out: MIC
[8] = Escherichia coli, TSB media, read-out: MIC
[9] = Staphylococcus aureus, M9G media, read-out: MIC
[10] = Staphylococcus aureus, TSB media, read-out: MIC
[11] = Aspergillus niger, read-out: MIC

Structure (SMILES): CCCCCCCCCCCCCCCC[N+]1(CC#CI)CC(C)OC(C)C1 (centres unmarked) [Compound 46, 4-hexadecyl-4-(3-iodopropargyl)-2,6-dimethylmorpholinium 4-methylbenzenesulfonate]
MIC [1, 5]: 16 µg/mL
MIC [1, 6]: 16 µg/mL
MIC ([2]; M9G media): 8 ppm
MIC ([2]; TSB media): 8 ppm
MIC [3, 9]: < 0.25 µg/mL
MIC [3, 10]: < 0.25 µg/mL
MIC [4]: 2 ppm

Structure (SMILES): CCCCCCCCCCCCCCCC[N+]1(CC#CI)CC(C)OC(C)C1 (centres unmarked) [Compound 47, 4-hexadecyl-4-(3-iodopropargyl)-2,6-dimethylmorpholinium benzenesulfonate]
MIC ([1]; M9G media): 8 ppm
MIC ([1]; TSB media): 8 ppm
MIC ([2]; M9G media): 2 ppm
MIC ([2]; TSB media): 2 ppm
MIC ([3]; M9G media): < 0.25 ppm
MIC ([3]; TSB media): < 0.25 ppm
MIC [4]: 0.5 ppm

Structure (SMILES): CCCCCCCCCCCCCCCC[N+]1(CC#CI)CC(C)OC(C)C1 (centres unmarked) [Compound 48, 4-hexadecyl-4-(3-iodopropargyl)-2,6-dimethylmorpholinium methanesulfonate]
MIC ([1]; M9G media): 8 ppm
MIC ([1]; TSB media): 8 ppm
MIC ([2]; M9G media): 2 ppm
MIC ([3]; M9G media): < 0.25 ppm
MIC ([3]; TSB media): 0.5 ppm
MIC [4]: 1 ppm

Structure (SMILES): CCCCCCCCCCCCCC[N+]1(CC#CI)CCCCC1C (centres unmarked) [Compound 51, 1-(tetradecyl)-1-(3-iodopropargyl)-2-methylpiperidinium benzenesulfonate]
MIC ([1]; M9G media): 16 ppm
MIC ([1]; TSB media): 16 ppm
MIC [2, 7]: 4 µg/mL
MIC ([2]; TSB media): 2 ppm
MIC ([3]; M9G media): < 0.25 ppm
MIC ([3]; TSB media): < 0.25 ppm
MIC [4, 11]: 0.5 µg/mL

Structure (SMILES): CCCCCCCCCCCCCC[N+]1(CC#CI)CC=CCC1 (centres unmarked) [Compound 53, 1-(tetradecyl)-1-(3-iodopropargyl)-1,2,3,6-tetrahydropyridinium benzenesulfonate]
MIC [1, 5]: 8 µg/mL
MIC [1, 6]: 16 µg/mL
MIC [2, 7]: 2 µg/mL
MIC [2, 8]: 1 µg/mL
MIC [3, 9]: < 0.25 µg/mL
MIC [3, 10]: < 0.25 µg/mL
MIC [4, 11]: < 0.25 µg/mL

Structure (SMILES): CCCCCCCCCCCCCC[N+]1(CC#CI)C=NCC1.O=S(=O)([O-])c1ccccc1 (centres unmarked) [Compound 56, 1-(tetradecyl)-1-(3-iodopropargyl)-imidazolinium benzenesulfonate]
MIC ([1]; M9G media): 8 ppm
MIC ([1]; TSB media): 63 ppm
MIC ([2]; M9G media): < 0.25 ppm
MIC ([2]; TSB media): < 0.25 ppm
MIC ([3]; M9G media): < 0.25 ppm
MIC ([3]; TSB media): < 0.25 ppm
MIC [4]: < 0.25 ppm

Structure (SMILES): CCCCCCCCCCCCCC[N+]1(CC#CI)CCNC1.O=S(=O)([O-])c1ccccc1 (centres unmarked) [Compound 58, 3-(tetradecyt)-3-(3-iodopropargyl)-imidazolidinium benzenesulfonate]
MIC ([1]; M9G media): 125 ppm
MIC ([1]; TSB media): > 500 ppm
MIC ([2]; M9G media): 4 ppm
MIC ([2]; TSB media): 8 ppm
MIC ([3]; M9G media): 0.5 ppm
MIC ([3]; TSB media): 4 ppm
MIC [4]: 8 ppm

Structure (SMILES): CCCCCCCCCCCCCC[N+]1(CC#CI)CCCCC1 [Compound 59, 1-tetradecyl-1-(3-iodopropargyl)-piperidinium benzenesulfonate]
MIC ([1]; M9G media): 32 ppm
MIC ([1]; TSB media): 125 ppm
MIC ([2]; M9G media): 8 ppm
MIC ([2]; TSB media): 16 ppm
MIC ([3]; M9G media): 4 ppm
MIC ([3]; TSB media): 4 ppm
MIC [4]: 8 ppm

Structure (SMILES): CCCCCCCCCCCCCC[N+]1(CC#CI)CCCCC1 [Compound 62, 1-tetradecyl-1-(3-iodopropargyl)-piperidinium methanesulfonate]
MIC ([1]; M9G media): 16 ppm
MIC ([1]; TSB media): 63 ppm
MIC ([2]; M9G media): 2 ppm
MIC ([2]; TSB media): 4 ppm
MIC ([3]; M9G media): 0.25 ppm
MIC ([3]; TSB media): 0.25 ppm
MIC [4]: 0.25 ppm

Structure (SMILES): CCCCCCCCCCCCOC(=O)C[N+]1(CC#CI)CCCC1 [Compound 63, 1-(dodecyloxycarbonyl)methyl-1-(3-iodopropargyl)-pyrrolidinium 4-methylbenzenesulfonate]
MIC [1, 5]: 64 µg/mL
MIC ([1]; TSB media): 125 ppm
MIC [2, 7]: 2 µg/mL
MIC [2, 8]: 4 µg/mL
MIC ([3]; M9G media): 2 ppm
MIC ([3]; TSB media): 4 ppm
MIC [4]: 2 ppm

Structure (SMILES): CCCCCCCCCCCCOC(=O)C[N+]1(CC#CI)CCCC1 [Compound 64, 1-(dodecyloxycarbonyl)methyl-1-(3-iodopropargyl)-pyrrolidinium benzenesulfonate]
MIC ([1]; M9G media): 32 ppm
MIC ([1]; TSB media): 32 ppm
MIC ([2]; M9G media): 1 ppm
MIC ([2]; TSB media): 4 ppm
MIC ([3]; M9G media): 0.25 ppm
MIC ([3]; TSB media): 0.25 ppm
MIC [4]: 8 ppm

Structure (SMILES): CCCCCCCCCCOC(=O)C[N+]1(CC#CI)CCCC1 [Compound 65, 1-(decyioxycarbonyl)methyl-1-(3-iodopropargyl)-pyrrolidinium 4methylbenzenesulfonate]
MIC [1, 5]: 64 µg/mL
MIC [1, 6]: 125 µg/mL
MIC [2, 7]: 2 µg/mL
MIC [2, 8]: 4 µg/mL
MIC [3, 9]: 2 µg/mL
MIC [3, 10]: 1 µg/mL
MIC [4, 11]: 16 µg/mL

Results, then the compound that gave them:

MIC [1, 5]: 4 µg/mL
MIC [1, 6]: 4 µg/mL
MIC [2, 7]: < 0.25 µg/mL
MIC [2, 8]: < 0.25 µg/mL
MIC [3, 9]: < 0.25 µg/mL
MIC [3, 10]: < 0.25 µg/mL
MIC [4, 11]: 1 µg/mL
Structure (SMILES): CCCCCCCCCCCCCC[N+]1(CC#CI)CCCCCC1 [Compound 45, 1-tetradecyl-1-(3-iodopropargyl)-hexamethyleneiminium 4-methylbenzenesulfonate]

MIC ([1]; M9G media): 8 ppm
MIC ([1]; TSB media): 8 ppm
MIC ([2]; M9G media): 1 ppm
MIC ([2]; TSB media): 2 ppm
MIC ([3]; M9G media): < 0.25 ppm
MIC ([3]; TSB media): 0.5 ppm
MIC [4]: 1 ppm
Structure (SMILES): CCCCCCCCCCCCCCCC[N+]1(CC#CI)CCOCC1 [Compound 49, 4-hexadecyl-4-(3-iodopropargyl)-morpholinium 4-methylbenzenesulfonate]

MIC ([1]; M9G media): 8 ppm
MIC ([1]; TSB media): 8 ppm
MIC ([2]; M9G media): 1 ppm
MIC ([2]; TSB media): 1 ppm
MIC ([3]; M9G media): < 0.25 ppm
MIC ([3]; TSB media): 0.5 ppm
MIC [4]: 0.5 ppm
Structure (SMILES): CCCCCCCCCCCCCCCC[N+]1(CC#CI)CCOCC1 [Compound 50, 4-hexadecyl-4-(3-iodopropargyl)-morpholinium benzenesulfonate]

MIC [1, 5]: 16 µg/mL
MIC [1, 6]: 16 µg/mL
MIC [2, 7]: 8 µg/mL
MIC [2, 8]: 2 µg/mL
MIC [3, 9]: < 0.25 µg/mL
MIC [3, 10]: < 0.25 µg/mL
MIC [4, 11]: < 0.25 µg/mL
Structure (SMILES): CCCCCCCCCCCCCC[N+]1(CC#CI)CCC(C)CC1 (centres unmarked) [Compound 52, 1-(tetradecyl)-1-(3-iodopropargyl)-4-methylpiperidinium benzenesulfonate]

MIC ([1]; M9G media): 250 ppm
MIC ([1]; TSB media): 125 ppm
MIC ([2]; M9G media): 8 ppm
MIC ([2]; TSB media): 16 ppm
MIC ([3]; M9G media): 1 ppm
MIC ([3]; TSB media): 8 ppm
MIC [4]: 1 ppm
Structure (SMILES): CCCCCCCCCCCCCC[N+]1(CC#CI)CCCCC1C (centres unmarked) [Compound 54, 1-(tetradecyl)-1-(3-iodopropargyl)-2-methylpiperidinium 4methylbenzenesulfonate]

MIC ([1]; M9G media): 125 ppm
MIC ([1]; TSB media): 125 ppm
MIC ([2]; M9G media): 4 ppm
MIC ([2]; TSB media): 16 ppm
MIC ([3]; M9G media): 1 ppm
MIC ([3]; TSB media): 8 ppm
MIC [4]: 1 ppm
Structure (SMILES): CCCCCCCCCCCCCC[N+]1(CC#CI)CCCCC1C (centres unmarked) [Compound 55, 1-(tetradecyl)-1-(3-iodopropargyl)-2-methylpiperidinium methanesulfonate]

MIC [1, 5]: 0.5 µg/mL
MIC [1, 6]: 4 µg/mL
MIC [2, 7]: < 0.25 µg/mL
MIC [2, 8]: 0.5 µg/mL
MIC [3, 9]: < 0.25 µg/mL
MIC [3, 10]: < 0.25 µg/mL
MIC [4, 11]: 0.5 µg/mL
Structure (SMILES): CCCCCCCCCCCCCC[N+]1(CC#CI)CCSCC1 [Compound 57, 4-(tetradecyl)-4-(3-iodopropargyl)-thiomorpholinium benzenesulfonate]

MIC ([1]; M9G media): 63 ppm
MIC ([1]; TSB media): 250 ppm
MIC ([2]; M9G media): 2 ppm
MIC ([2]; TSB media): 16 ppm
MIC ([3]; M9G media): 1 ppm
MIC ([3]; TSB media): 2 ppm
MIC [4]: 16 ppm
Structure (SMILES): CCCCCCCCCCCCCCCC[N+]1(CC#CI)CCCCC1 [Compound 60, 1-hexadecyl-1-(3-iodopropargyl)-piperidinium benzenesulfonate]

MIC ([1]; M9G media): 16 ppm
MIC ([1]; TSB media): 125 ppm
MIC ([2]; M9G media): 8 ppm
MIC ([2]; TSB media): 8 ppm
MIC ([3]; M9G media): 2 ppm
MIC ([3]; TSB media): 2 ppm
MIC [4]: 8 ppm
Structure (SMILES): CCCCCCCCCCCCCCCC[N+]1(CC#CI)CCCCC1 [Compound 61, 1-hexadecyl-1-(3-iodopropargyl)-piperidinium methanesulfonate]
